Measurements from patent US7947854B2, “Bis-cationic compounds and use thereof” (The University of Sydney, priority 2003, dated 2011).
Marks after values point to notes of the source that are not given here.

How the values were obtained:
Format in all cases: biochemical, Cryptococcus neoformans H99
Details in all cases: modifier 10 mM (Triton X-100 0.1% w/v)
[1] = tested on: membrane-associated phospholipase B (PLB activity); assay: Radiometric assay, membrane-associated PLB activity
Protocol: (§1) Fungal isolates and media. […] Isolate H99 was kindly supplied by Dr. Gary Cox (Duke University Medical Center, Durham, N.C., USA), and subcultured onto Sabouraud dextrose agar (SDA) at 30° C.
(§2) Cellular disruption to prepare membrane and cytosolic fractions. The cell pellet from the preparation of the supernatant, above, was also frozen at −70° C. After washing twice with imidazole buffer, it was disrupted in the presence of a protease inhibitor cocktail (P 8215 for fungal and yeast cells; 4-(2-aminoethyl)benzenesulfonyl fluoride hydrochloride, 100 mM, 1,10-phenanthroline, 500 mM, pepstatin A, 2.2 mM, E-64, 1.4 mM; Sigma) in a MiniBeadbeater-8 Cell Disrupter (MBB-8; Daintree Scientific, Tasmania, Australia) for three cycles of 1 min, alternating with a 1 min cooling period on ice. The homogenate was centrifuged at 14,000 g for 15 min to obtain the membrane (pellet) and the cytosolic (supernatant) fractions.
(§3) Radiometric assay method for phospholipases. Enzyme activities were measured as described previously in a final volume of 125 μL at 37° C. For the determination of secreted PLB activity, carrier dipalmitoyl phosphatidylcholine (DPPC, final concentration 800 μM) and 1,2-di[1-^14C] palmitoyl phosphatidylcholine (20,000 dpm) were dried under nitrogen and suspended in 125 mM imidazole acetate buffer (assay buffer, pH 4.0) by sonication using a Branson 450 sonifier. The reaction time was 22 min, using 1 μg total protein and PLB activity was determined by the rate of decrease of the radiolabelled PC substrate, with appearance of the label in free fatty acid. This assay also simultaneously allows for the determination of phospholipase A, C and D activities. These activities were measured by the appearance of radiolabel from PC in Lyso PC, diacylglycerol and phosphatidic acid, respectively.
(§4) All reactions were terminated by adding 0.5 mL of chloroform:methanol (2:1 v/v). The reaction products were extracted by the method as disclosed in Bligh, E. C. and W. J. Dyer. 1959 ‘A rapid method of total lipid extraction and purification.’ Can. J. Biochem. Physiol. 37:911-917, separated by TLC and quantified as previously described. In the case of PLC activity, the TLC plates were developed in petroleum ether (BP 60-80° C.): diethyl ether: acetic acid (90:15:1, v/v/v) instead of chloroform:methanol:water (65:25:4, v/v/v).
(§5) All experiments were carried out in duplicate or triplicate. The effects of pH on the various phospholipase activities were measured using 50 mM final concentration of imidazole-acetate buffer (pH range 3-5), MES buffer (pH range 6-8) and glycine buffer (pH 9-10). Controls for non-enzymic breakdown of substrates were included at all pH values. Cations, Triton X-100 and metal chelators were made up as stock solutions in water and diluted to the final concentration in the appropriate assay buffer.
(§6) Preparation of inhibitors and use in assays. The following compounds were tested (for structures, see FIG. 2): compound 1, 1,12-bis(tributylphosphonium)dodecane dibromide (Fluka AG, Buchs, Switzerland); compound 2, 1,10-bis(tributylammonium)-decane dibromide; compound 3, 1,12-bis(tributylammonium)do-decane dibromide (both synthesised in-house); compound 4, 1,10-bis(trimethylammonium)decane dibromide [“decamethonium”] (Sigma, St. Louis Mo., USA). All compounds were prepared as stock solutions of 700 μM in assay buffer containing 5 mM EDTA, which was then diluted serially with buffer to obtain solutions of 70, 7, 0.7 and 0.07 μM. In each assay, 45 μL of these solutions was used, and the final volume of 125 μL was made up of substrate, enzyme and buffer. The radiometric assay was carried out as above.

[2] = tested on: membrane-associated phospholipase B (LPL/LPTA activities); assay: Radiometric assay, membrane-associated LPL/LPTA activities
Protocol: as §1, §2
(§7) Secreted LPL and LPTA activities were measured simultaneously in a reaction mixture containing 1-[^14C]palmitoyl lyso-PC (25,000 dpm) and carrier lyso-PC (final concentration 200 μM) in assay buffer. The reaction time was […] with 1 μg of total protein and LPL activity was measured by the rate of loss of 1-[^14C]palmitoyl lyso-PC with release of radiolabelled fatty acids. LPTA activity was estimated from the rate of formation of radiolabelled PC.
as §4, §5
(§8) Preparation of inhibitors and use in assays. The following compounds were tested (for structures, see FIG. 2): compound 1, 1,12-bis(tributylphosphonium)dodecane dibromide (Fluka AG, Buchs, Switzerland); compound 2, 1,10-bis(tributylammonium)-decane dibromide; compound 3, 1,12-bis(tributylammonium)do-decane dibromide (both synthesised in-house); compound 4, 1,10-bis(trimethylammonium)decane dibromide [“decamethonium”] (Sigma, St. Louis Mo., USA). All compounds were prepared as stock solutions of 700 μM in assay buffer containing 5 mM EDTA, which was then diluted serially with buffer to obtain solutions of 70, 7, 0.7 and 0.07 μM. In each assay, 45 μL of these solutions was used, and the final volume of 125 μL was made up of substrate, enzyme and buffer. The radiometric assay was carried out as above. Inhibition was calculated as the percent of substrates (DPPC or Lyso-PC) remaining in the case of PLB and LPL activities, or of DPPC produced, in the case of the LPTA activity. The amounts converted, or produced, in the inhibitor-free control were normalised to 100%, and the inhibition calculated against it. All assays were done in triplicate.
(§9) Under these conditions only PLB, LPL and LPTA activities (both secreted and cell-associated) were measured. Initially, compounds deemed to be potential inhibitors were assayed at 25 and 250 μM.

[3] = tested on: cytosolic phospholipase B (LPL/LPTA activities); assay: Radiometric assay, cytosolic LPL/LPTA activities
Protocol: as §1, §2, §7, §4, §5, §8, §9

[4] = tested on: cytosolic phospholipase B (PLB activity); assay: Radiometric assay, cytosolic PLB activity
Protocol: as §1, §2, §3, §4, §5, §6

| Compound | Membrane-associated PLB activity, percentage of the control ([1]; pH 4.0) [%] | Membrane-associated PLB activity, percentage of the control ([1]; pH 7.0) | Membrane-associated LPL activity, percentage of the control ([2]; pH 4.0) [%] | Membrane-associated LPTA activity, percentage of the control ([2]; pH 4.0) [%] | Membrane-associated LPL activity, percentage of the control ([2]; pH 7.0) | Membrane-associated LPTA activity, percentage of the control ([2]; pH 7.0) | Cytosolic LPL activity, percentage of the control ([3]; pH 4.0) [%] | Cytosolic LPTA activity, percentage of the control ([3]; pH 4.0) [%] | Cytosolic LPL activity, percentage of the control ([3]; pH 7.0) [%] | Cytosolic LPTA activity, percentage of the control ([3]; pH 7.0) [%] | Cytosolic PLB activity, percentage of the control ([4]; pH 4.0) | Cytosolic PLB activity, percentage of the control ([4]; pH 7.0) |
| --- | --- | --- | --- | --- | --- | --- | --- | --- | --- | --- | --- | --- |
| O=C(O)CN(CCN(CC(=O)O)CC(=O)O)CC(=O)O [EDTA, ethylenediaminetetraacetic acid] | 87 | 67% | 98 | 94 | 96% | 100% | 100 | 100 | 30 | 32 | 100% | 100% |
| [Ca+2] [Calcium] | 83 | 533* % | 100 | 96 | 166* % | 140* % | 100 | 100 | 236 | 206 | 100% | 591* % |
| [Mg+2] [Magnesium] | 79 | 467* % | 97 | 91 | 145* % | 123* % | 73 | 70 | 96 | 85 | 100% | 477* % |
| [Cl][Fe]([Cl])[Cl] [FeCl3] | 92 | 2* % | 97 | 75 | 61* % | 45* % | 81 | 78 | 22 | 21 | 79% | 61% |
| Triton X-100 | 19 | 33* % | 71 | 52 | 4* % | 2* % | 62 | 39 | 0.9 | 0 | 54* % | 59% |
| O=C(O)CN(CCOCCOCCN(CC(=O)O)CC(=O)O)CC(=O)O [EGTA, ethyleneglycoldiamine tetraacetic acid] | 77 | 200% | 100 | 90 | 100% | 100% | 86 | 88 | 26 | 29 | 100% | 163% |
